Experimental findings from patent US20220152077A1 (THE UNIVERSITY OF WARWICK, priority 2019, published 2022) are described below.

“Also recorded” adds a separate entry of the source. Where two headings read alike, the source gives them in different places.

The subject of series [1] is synaptic transmission in the hippocampus. Kind of series: Extracellular fEPSP recording in hippocampal slices (synaptic transmission). It counts as cell-based, rat. How it is done: (§1) Preparation of hippocampal slices: Sagittal slices of hippocampus (300-400 μm) were prepared from male Sprague Dawley rats, at postnatal days 12 to 20. Rats were kept on a 12-hour light-dark cycle with slices made 90 minutes after entering the light cycle. […] The brain was removed, cut down the mid line and the two sides of the brain stuck down to a metal base plate. […] Slices were stored at 34° C. for 1 to 6 hours in aCSF (1 mM MgCl2, 2 mM CaCl2) before use.
Extracellular recording: A slice was transferred to the recording chamber, submerged in aCSF and perfused at 4 to 6 mL/min (32° C.). The slice was placed on a grid allowing perfusion above and below the tissue and all tubing was gas tight (to prevent loss of oxygen). For extracellular recording, an aCSF filled microelectrode was placed on the surface of stratum radiatum in CA1. […] For fEPSPs a 10 to 20 minute baseline was recorded at a stimulus intensity that gave 40 to 50% of the maximal response. […] For fEPSP slope, a 1 ms linear region after the fibre volley was measured. Extracellular recordings were made independently on two electrophysiology rigs.
Statistical significance was tested using the unpaired t-test and one-way and two-way ANOVAs with Bonferroni correction for multiple comparisons.
(§2) Data Analysis. […] Statistical significance was tested as indicated in the text using paired or unpaired t-tests or one-way or two-way ANOVAs with repeated measures (RM) as appropriate. Bonferroni corrections for multiple comparisons were performed. All in vitro cell signalling assay data was analysed using Prism 7.0e (Graphpad software, San Diego, Calif.), with all concentration-response curves being fitted using a 3 parameter logistic equation to calculate response range and IC50. All cAMP data was normalised to a forskolin concentration-response curve ran in parallel to each assay. […] Radioligand displacement curves were fitted to the one-site competition binding equation yielding log Ki values. […] To determine the extent of ligand-induced recruitment of β-arrestin2-YFP to either the A1R or A3R, the BRET signal was calculated by subtracting the 530 nm/450 nm emission for vehicle-treated cells from ligand-treated cells (ligand-induced ΔBRET). ΔBRET for each concentration at 5 minutes (maximum response) was used to produce concentration-response curves.

Series [2] concerns Goa. It counts as cell-based, human. The note with it: PTX-treated cells. How it is done:
Cells were then incubated for 24 hours before addition of 100 ng/ml PTX, to inhibit activity of endogenous Gαi/o, and then incubated for a further 16-18 hours. Transfected cells were then assayed as per cAMP inhibition experiments, but co-stimulated with agonist and 100 nM forskolin.
as §2

Series [3] concerns seizure activity induced in hippocampal slices. Kind of series: Seizure model in hippocampal slices (no added Mg2+, 6 mM K+ aCSF). It counts as cell-based, rat. The following applies: adenosine 20-100 μM, NECA 300 nM, CPA 300 nM, BnOCPA 300 nM to 1 μM. How it is done:
as §1
Seizure model: Seizure activity was induced in hippocampal slices using aCSF which contained no added Mg^2+ and with the total K^+ concentration increased to 6 mM with KCl. Removal of extracellular Mg^2+ facilitates NMDA receptor activation producing long lasting EPSPS, which can sum together to produce tonic activation. Increasing the extracellular concentration of K^+ depolarises neurons leading to firing and release of glutamate to sustain activity. Both the increase in K^+ concentration and removal of Mg^2+ are required to produce spontaneous activity in hippocampal slices. Spontaneous activity was measured with an aCSF-filled microelectrode placed within stratum radiatum in CA1.

For series [4], the system named is isolated frog heart. The series is described as follows: Frog heart preparation, heart rate. Set-up: species or system Xenopus leavis. The protocol:
Frog heart preparation: Xenopus […] frogs (young adult males) were supplied from Portsmouth Xenopus Resource Centre. Frogs were euthanized with MS222 (0.2% at a pH of 7), decapitated and pithed. The animals were dissected to reveal the heart and the pericardium carefully removed. Heart contractions were measured with a force transducer (AD instruments). Heart rate was acquired via a PowerLab […] (AD instruments) controlled by LabChart 7 (AD instruments). The heart was regularly washed with ringer and drugs were applied directly to the heart.

Series [5] has as its system urethane-anaesthetised, spontaneously breathing adult rats. Kind of series: In vivo anaesthetised rat preparation, heart rate and mean arterial blood pressure.
For series [6], the system named is adenosine-induced outward current in CA1 pyramidal cells. The series is described as follows: Whole-cell voltage clamp, adenosine-induced outward current with G protein interfering peptides. It counts as cell-based, rat. The following applies: for mean amplitude of the adenosine-induced outward current with intracellular peptide: peptide 100 μM via patch pipette. How it is done: Whole cell patch clamp recording from hippocampal pyramidal cells: A slice was transferred to the recording chamber and perfused at 3 mL/min with aCSF at 32±0.5° C. Slices were visualised using IR-DIC optics with an Olympus BX151W microscope (Scientifica) and a CCD camera (Hitachi). Whole-cell current clamp recordings were made from pyramidal cells in area CA1 of the hippocampus using patch pipettes (5 to 10 MΩ) manufactured from thick walled glass (Harvard Apparatus, Edenbridge UK) and containing (mM): potassium gluconate 135, NaCl 7, HEPES 10, EGTA 0.5, phosphocreatine 10, MgATP 2, NaGTP 0.3 and biocytin 1 mg/mL (290 mOSM, pH 7.2). Voltage and current recordings were obtained using an Axon Multiclamp 700B amplifier (Molecular Devices, USA) and digitised at 20 KHz. Data acquisition and analysis was performed using Pclamp 10 (Molecular Devices). For voltage clamp experiments, CA1 pyramidal cells were held at −60 mV. Peptides to interfere with G protein signalling were introduced via the patch pipette into the recorded cell. […].
Drugs: Drugs were made up as stock solutions (1 to 10 mM) and then diluted in aCSF on the day of use. Compounds were dissolved in dimethyl-sulphoxide (DMSO, 0.01% final concentration of DMSO). […]. Peptides for interfering with G protein signalling were obtained from Hello Bio (Bristol, UK) and were based on published sequences (Varani et al., Adv Exp Med Biol 1051, 193-232 (2017)). […] The scrambled version was […]. […] Peptides were made up as stock solutions (2 mM) and stored at −20° C. The stock solutions were dissolved in filtered intracellular solution just before use.

In series [7] the test system is membrane potential of pyramidal cells. The series is described as follows: Whole cell current clamp recording of membrane potential, CA1 pyramidal cells. It counts as cell-based, rat. The protocol:
as §1
Whole cell patch clamp recording from hippocampal pyramidal cells: A slice was transferred to the recording chamber and perfused at 3 mL/min with aCSF at 32±0.5° C. Slices were visualised using IR-DIC optics with an Olympus BX151W microscope (Scientifica) and a CCD camera (Hitachi). […] Voltage and current recordings were obtained using an Axon Multiclamp 700B amplifier (Molecular Devices, USA) and digitised at 20 KHz. Data acquisition and analysis was performed using Pclamp 10 (Molecular Devices). For voltage clamp experiments, CA1 pyramidal cells were held at −60 mV. Peptides to interfere with G protein signalling were introduced via the patch pipette into the recorded cell.

Setting [8] is: rat hippocampal slices, CA1, read-out: IC50, inhibition of synaptic transmission (fEPSP slope).
[9] abbreviates: IV, adenosine 1 mg·kg^−1, BnOCPA 10 μg·kg^−1, CPA 420 ng·kg^−1.

`Cn1c(=O)c2[nH]c(C3CCCC3)nc2n(C)c1=O` [8-CPT, 8-cyclopentyltheophylline]: the “effect of the A1 receptor antagonist on agonist inhibition of synaptic transmission” value in series [1] (8-CPT 2 μM (adenosine) or 4 μM (BnOCPA)) is “reversed the inhibition of synaptic transmission caused by adenosine”.

`OC[C@H]1O[C@@H](n2cnc3c(N[C@@H]4CCC[C@H]4O)ncnc32)[C@H](O)[C@@H]1O` [HOCPA]: in series [2], the “activation of / coupling to Goa” value is “coupled to a range of Gi/o subunits, and in particular Goa”.

Broadly, the IC50 is the concentration that gives 50% inhibition. With `CCNC(=O)[C@H]1O[C@@H](n2cnc3c(N)ncnc32)[C@H](O)[C@@H]1O` [NECA, 5′-(N-Ethylcarboxamido) adenosine], in series [2], the “activation of / coupling to Goa” value is “coupled to a range of Gi/o subunits, and in particular Goa”. Further, the “effect on seizure activity” value in series [3] was “rapidly and reversibly abolished seizure activity; also recorded: blocks seizure activity in a reversible manner”. Besides, in series [1] (setting [8]), the IC50 came to 0.0083 ± 0.003 µM.

Take `Nc1ncnc2c1ncn2[C@@H]1O[C@H](CO)[C@@H](O)[C@H]1O` [adenosine]: in series [4] (adenosine 30 μM), the “reduction of heart rate” value is recorded as “about 15%”. For the same compound, the “reduction of heart rate by adenosine following BnOCPA” value in series [4] (adenosine 30 μM after BnOCPA 300 nM) is 0.27±0.2 BPM. In addition, the “reduction / change of heart rate” value in series [4] (adenosine 30 μM, BnOCPA 300 nM, CPA) was found to be 6.25±0.6 BPM. The “heart rate after application” value in series [4] (adenosine 30 μM, from 42±1.2 BPM) was found to be 35.5±1.2 BPM. In series [5] (IV co-injection), the “MAP after adenosine co-injected with BnOCPA” value is 51±4 mmHg, the “change of HR by adenosine co-injected with BnOCPA” value is recorded as “about 12%” and the “mean change of HR by adenosine co-injected with BnOCPA” value is listed as 51±4 BPM. Further, in series [5] (setting [9]), the “change of HR” value is given as “about 66%”, the “heart rate (HR) after injection” value was 147±12 BPM and the “mean arterial blood pressure (MAP) after injection” value came to 46±4 mmHg. Further, in series [5] (adenosine IV), the “reduction of MAP” value was “about 47%”. Besides, in series [5] (single anaesthetised rat preparation, IV), the “effect on HR and BP” value was “HR and BP depression”. Further, in series [3], the “effect on seizure activity” value is given as “reversibly blocks seizure activity”. Also, in series [3] (listed as Adenosine), the “effect on seizure activity” value is “rapidly and reversibly abolished seizure activity”. In addition, in series [6] (adenosine 10 μM, control conditions, held at −60 mV), the “mean amplitude of the outward current induced by adenosine” value is reported as 43.9±3.1 pA. Further, the IC50 in series [1] (Rattus norvegicus, read-out: IC50, inhibition of synaptic transmission by adenosine with 8-CPT, in the presence of 2 μM 8-CPT) amounted to 125 ± 10 µM. For the same compound, in series [1] (setting [8]), the IC50 stood at 20 ± 4.3 µM. The “membrane potential after agonist” value in series [7] (adenosine 100 μM, CPA 300 nM) is on record as −74.1±1.5 mV. The “mean change of membrane potential (hyperpolarisation)” value in series [7] (adenosine 100 μM, CPA 300 nM, BnOCPA 300 nM-1 μM) is −4.7±0.5 mV.

As to `NCC(CC(=O)O)c1ccc(Cl)cc1` (stereo not drawn) [baclofen], in series [7] (BnOCPA 300 nM), the “mean hyperpolarisation produced by baclofen in the presence of BnOCPA” value is listed as 6.5±0.43 mV. The “membrane potential after baclofen in the presence of BnOCPA (example)” value in series [7] (baclofen (10 µM), BnOCPA 300 nM, from −67 mV) is −74 mV. In addition, the “mean hyperpolarisation produced by baclofen in control conditions” value in series [7] (without BnOCPA) was 6.3±0.76 mV.

Regarding “Goa interfering peptide: peptide interfering with G protein signalling, sequence MGIANNLRGCGLY”, in series [6], the “effect of peptide on adenosine-induced outward current” value (“effect of peptide” for short) is on record as “caused a significant attenuation of the adenosine-induced outward current”. Moreover, the “mean amplitude of the adenosine-induced outward current with intracellular peptide” value (“mean amplitude … with intracellular peptide” below) in series [6] (adenosine 10 μM) came out at 20.9±3.6 pA.

Consider “Gob interfering peptide: peptide interfering with G protein signalling, sequence MGIQNNLKYIGIC”, for which the “effect of peptide” value in series [6] was “neither the scrambled peptide nor the Gob peptide had any effect on current amplitude”. For the same compound, the “mean amplitude … with intracellular peptide” value in series [6] (adenosine 10 μM) is recorded as 37.4±2.2 pA.

On to “scrambled peptide: scrambled version of the Goa peptide, sequence LNRGNAYLCIGMG”, for which, in series [6], the “effect of peptide” value is reported as “neither the scrambled peptide nor the Gob peptide had any effect on current amplitude”. Also, the “mean amplitude … with intracellular peptide” value in series [6] (adenosine 10 μM) is 43.4±2.4 pA.
